Tests used:
Type in all cases: cell-based, human
MCF-7 Nod2 cells [1] = assay: Apoptosis (PI, flow cytometry) in MCF-7 cells over-expressing Nod2; conditions: 20 ug/ml plus CHX, 48 h
Procedure: (§1) In FIG. 5A, MCF-7 Blasto, MCF-7 Nod1 and MCF-7 Nod2 were treated with the NOD1 ligand γTriDAP or the Nod2 ligand muramyl dipeptide (MDP)(20 ug/ml each) in the presence or absence of CHX for 48 h. Cells were then incubated with PI and apoptotic cell death was measured by flow cytometry. […] In FIG. 5B, expression of NOD1 and NOD2 was confirmed by Western blot analysis using anti-Myc antibodies for detection of the recombinant proteins. […] MCF-7 Blasto, MCF-7 Nod1 and MCF-7 Nod2 cells were stimulated with γTriDAP or MDP in the presence or absence of CHX (0.5 ug/ml) for 24 h. Cell supernatants were then harvested and assayed for IL-8 secretion.
Cell viability assays. Propidium iodide exclusion assay: Cells were stimulated as indicated for 2 days. […] The extent of cell death was analyzed with a FACSCalibur flow cytometer (Becton Dickinson, Mountain View, Calif.). […] Cells were fixed in 4% paraformaldehyde and examined by fluorescence microscopy.
(§2) Experiments were also performed to ascertain whether activation of Nod2 by its specific activator, muramyl dipeptide (MDP), would initiate apoptosis in parental MCF-7 cells or in MCF-7 cells over-expressing Nod2 (MCF-7 Nod2). Thus, γTriDAP or MDP were added to each of these lines and apoptosis (FIG. 5A) and IL-8 production (FIG. 5C) were measured. […]

MCF-7 Nod2 cells [2] = assay: IL-8 secretion (ELISA) in MCF-7 Nod2 cells; conditions: 24 h
Procedure: as §1
IL-8 ELISA. Concentrations of IL-8 in the culture supernatants of transfected HeLa cells were measured by ELISA using 96-well Immunlon plates (Dynatech Laboratories, Chantilly, Va.). ELISA was performed using the mAb MAB208 for capture and a biotinylated polyclonal rabbit anti-human IL-8 Ab (R&D Systems, Minneapolis, Minn.) followed by streptavidin HRP for detection.
as §2

[3] = test system: MCF-7 cells expressing wild type RIP2, RIP2 KD or RIP2ΔCARD; assay: Apoptosis (PI, flow cytometry) in MCF-7 cells stably expressing RIP2 constructs; conditions: 20 μg/ml, CHX 3 μg/ml, 48 hr
Procedure: FIG. 13A-D illustrate that RIP2 is an important component of the Nod1 apoptotic pathway. […] MCF-7 cells were stably transfected with Myc-Nod1, Myc-RIP2 (wild type), Myc-RIP2 KD, and Myc-RIP2 ΔCARD. Test cells were then treated with γTriDAP, αTriDAP and MDP (20 μg/ml each) in the presence or absence of CHX (3 μg/ml) for 48 hr, while control cells were not treated with these agents. Cells were then incubated with propidium iodide (PI) and apoptotic cell death was measured by flow cytometry. FIG. 13B illustrates the effect of TNF upon apoptosis in the same MCF-7 cell lines described in FIG. 13A. These cells lines were treated with TNF (10 ng/ml) for 18 hr and apoptotic cell death was assessed as described for FIG. 13A. TNF increased apoptosis in all the cell lines tested. […] Cells were incubated in the presence of increasing concentrations of γTriDAP or MDP in the presence of CHX for 48 hr and apoptotic cell death was assessed as described for FIG. 13A. FIG. 13D illustrates IL-8 secretion by MCF-7 Blasto, MCF-7 Nod1 and MCF-7 RIP2 wild type cells after stimulation with γTriDAP in the presence of CHX ([…]) or TNF. […]
Cell viability assays. […] The extent of cell death was analyzed with a FACSCalibur flow cytometer (Becton Dickinson, Mountain View, Calif.). […] Cells were fixed in 4% paraformaldehyde and examined by fluorescence microscopy. […]

[4] = test system: MCF-7 C20 cells with Nod2; assay: Apoptosis in MCF-7 C20 cells complemented with Nod2; conditions: MCF-7 C20 complemented with Nod2 (data not shown)

**Q.** What does the source list for muramyl dipeptide [MDP]?
**A.** apoptosis (MCF-7 Nod2 cells [1]): did not undergo increased apoptosis; IL-8 secretion (MCF-7 Nod2 cells [2]): did result in IL-8 secretion; apoptosis ([3]; cells expressing RIP2 KD): effective at inducing high levels of apoptosis; apoptosis ([3]; cells expressing either wild type RIP2 or RIP2ΔCARD): not; apoptosis [4]: did not result in apoptosis

From patent US20090028795A1, “NOD1 as an Anti-Tumor Agent” (priority 2005, published 2009)
